Test results as given in PubChem BioAssay AID330 (DTP/NCI, 2004).
“And” between values parts separate entries of the source, which are not always exact repeats. Equal values may be shown once. Inconclusive results and toxic doses are left out. Rule for the calls: active = survival T/C of 150% or more; inactive = T/C below 125% in these data.

Test system: P388 leukemia ip, CD2F1 mice, survival T/C
Experiment: NCI In Vivo Anticancer Drug Screen. Data for tumor model P388 Leukemia (intraperitoneal) in CD2F1 (CDF1) mice
Conditions: endpoint: median survival time, higher = longer survival
In short: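 Mice carrying the transplanted tumor received test compound or vehicle. Survival was recorded in each group, and the value is the treated-group measurement divided by that of the vehicle-treated control group.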

Measured: T/C

Cc1[nH]c(=O)[nH]c(=O)c1N(CCF)CCCl
inactive: dose: 0.5 mg/kg/injection, schedule: Q03HX024 (ip), vehicle: acid diluted with saline 101 % of control | dose: 1.0 mg/kg/injection, schedule: Q03HX016 (ip), vehicle: acid diluted with saline 100 % of control | dose: 1.0 mg/kg/injection, schedule: Q03HX024 (ip), vehicle: acid diluted with saline 105 % of control | dose: 1.8 mg/kg/injection, schedule: Q01DX009 (ip), vehicle: saline with Tween-80 109 % of control | dose: 2.0 mg/kg/injection, schedule: Q01DX009 (ip), vehicle: acid diluted with saline 110 % of control | dose: 2.0 mg/kg/injection, schedule: Q01DX009 (sc), vehicle: acid diluted with saline 101 % of control | dose: 2.0 mg/kg/injection, schedule: Q03HX008 (ip), vehicle: acid diluted with saline 105 % of control | dose: 2.0 mg/kg/injection, schedule: Q03HX016 (ip), vehicle: acid diluted with saline 105 % of control | dose: 2.0 mg/kg/injection, schedule: Q03HX024 (ip), vehicle: acid diluted with saline 108 % of control | dose: 2.0 mg/kg/injection, schedule: Q03HX024 (oral), vehicle: acid diluted with saline 109 % of control | dose: 2.0 mg/kg/injection, schedule: Q03HX024 (oral), vehicle: other 107 % of control | dose: 3.0 mg/kg/injection, schedule: Q01DX009 (ip), vehicle: saline with Tween-80 109 % of control | dose: 4.0 mg/kg/injection, schedule: Q01DX005 (ip), vehicle: Klucel (hydroxypropylcellulose) (HPC) 121 % of control | dose: 4.0 mg/kg/injection, schedule: Q01DX005 (iv), vehicle: Klucel (hydroxypropylcellulose) (HPC) 102 % of control | dose: 4.0 mg/kg/injection, schedule: Q01DX009 (ip), vehicle: acid diluted with saline 101 % of control | dose: 4.0 mg/kg/injection, schedule: Q01DX009 (sc), vehicle: acid diluted with saline 103 % of control | dose: 4.0 mg/kg/injection, schedule: Q03HX008 (ip), vehicle: acid diluted with saline 105 % of control | dose: 4.0 mg/kg/injection, schedule: Q03HX008 (oral), vehicle: other 105 % of control | dose: 4.0 mg/kg/injection, schedule: Q03HX016 (oral), vehicle: other 100 % of control | dose: 4.0 mg/kg/injection, schedule: Q03HX024 (ip), vehicle: acid diluted with saline 112 % of control | dose: 4.0 mg/kg/injection, schedule: Q03HX024 (oral), vehicle: acid diluted with saline 100 % of control | dose: 4.0 mg/kg/injection, schedule: Q03HX024 (oral), vehicle: other 108 % of control | dose: 4.0 mg/kg/injection, schedule: Q04DX003 (ip), vehicle: acid diluted with saline 106 % of control | dose: 5.0 mg/kg/injection, schedule: Q01DX009 (ip), vehicle: saline with Tween-80 109 % of control | dose: 6.25 mg/kg/injection, schedule: Q04DX003 (ip), vehicle: saline 104 % of control | dose: 8.0 mg/kg/injection, schedule: Q01DX001 (ip), vehicle: acid diluted with saline 109 % of control | dose: 8.0 mg/kg/injection, schedule: Q01DX001 (ip), vehicle: saline 118 % of control | dose: 8.0 mg/kg/injection, schedule: Q01DX005 (iv), vehicle: Klucel (hydroxypropylcellulose) (HPC) 119 % of control | dose: 8.0 mg/kg/injection, schedule: Q01DX009 (ip), vehicle: acid diluted with saline 116 % of control | dose: 8.0 mg/kg/injection, schedule: Q01DX009 (oral), vehicle: acid diluted with saline 109 % of control | dose: 8.0 mg/kg/injection, schedule: Q01DX009 (oral), vehicle: other 115 % of control | dose: 8.0 mg/kg/injection, schedule: Q01DX009 (sc), vehicle: acid diluted with saline 108 % of control | dose: 8.0 mg/kg/injection, schedule: Q03HX008 (ip), vehicle: acid diluted with saline 103 % of control | dose: 8.0 mg/kg/injection, schedule: Q03HX008 (oral), vehicle: acid diluted with saline 109 % of control | dose: 8.0 mg/kg/injection, schedule: Q03HX008 (oral), vehicle: other 106 % of control | dose: 8.0 mg/kg/injection, schedule: Q03HX016 (ip), vehicle: acid diluted with saline 105 % of control | dose: 8.0 mg/kg/injection, schedule: Q03HX016 (oral), vehicle: acid diluted with saline 100 % of control | dose: 8.0 mg/kg/injection, schedule: Q03HX016 (oral), vehicle: other 106 % of control | dose: 8.0 mg/kg/injection, schedule: Q03HX024 (oral), vehicle: acid diluted with saline 104 % of control | dose: 8.0 mg/kg/injection, schedule: Q03HX024 (oral), vehicle: other 115 % of control | dose: 8.0 mg/kg/injection, schedule: Q04DX003 (ip), vehicle: acid diluted with saline 112 % of control | dose: 8.0 mg/kg/injection, schedule: Q08DX002 (ip), vehicle: acid diluted with saline 100 % of control | dose: 12.5 mg/kg/injection, schedule: Q04DX003 (ip), vehicle: saline 122 % of control | dose: 16.0 mg/kg/injection, schedule: Q01DX001 (ip), vehicle: acid diluted with saline 103 % of control and 118 % of control and 122 % of control | dose: 16.0 mg/kg/injection, schedule: Q01DX001 (ip), vehicle: saline 122 % of control | dose: 16.0 mg/kg/injection, schedule: Q01DX001 (sc), vehicle: acid diluted with saline 100 % of control | dose: 16.0 mg/kg/injection, schedule: Q01DX005 (iv), vehicle: Klucel (hydroxypropylcellulose) (HPC) 121 % of control
